Laboratory results from publication PMC7851449, “An extracellular lipase from Amycolatopsis mediterannei is a cutinase with plastic degrading activity” (Computational and Structural Biotechnology Journal, 2021).

Molecular target: T1, AML (Amycolatopsis mediterranei lipase) (Amycolatopsis mediterranei, UniProt A0A0H3DES9)
T1 construct: gene AMED_7492; recombinant, pET-49b(+), E. coli BL21(DE3) cytosol; glutathione agarose, tag cut off with PreScission protease
Assay: p-nitrophenyl ester hydrolysis assay, relative activity
Format: biochemical
Conditions: 50 mM Tris pH 7.5, 37 °C, 10 min, 20 mM substrate

T1 sequence (A0A0H3DES9 entry or part of it): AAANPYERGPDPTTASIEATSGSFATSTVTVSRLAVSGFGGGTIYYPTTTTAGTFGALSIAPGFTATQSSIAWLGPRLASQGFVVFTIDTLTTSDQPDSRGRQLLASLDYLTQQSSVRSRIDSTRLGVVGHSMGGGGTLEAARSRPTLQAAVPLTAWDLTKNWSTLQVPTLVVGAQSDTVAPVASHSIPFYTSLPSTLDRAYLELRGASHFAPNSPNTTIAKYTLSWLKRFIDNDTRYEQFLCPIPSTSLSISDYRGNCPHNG

CCCCCCCC(=O)Oc1ccc([N+](=O)[O-])cc1 [p-nitrophenyl octanoate]
relative activity (%) (reference substrate for relative activity): relative activity (%) was calculated using p-nitrophenyl octanoate (C-8) as the reference, highest activity, substrate

CC(=O)Oc1ccc([N+](=O)[O-])cc1 [p-nitrophenyl acetate]
relative activity (%): experimentally low activity of AML observed towards p-nitrophenyl acetate
